# In patent publication US20230126310A1 (priority 2020, published 2023):
# Test system: SARS-CoV-2
# Settings: for % Inh. (% Inhibition of SARS-CoV-2): 10 µM
Compound,% Inh. (% Inhibition of SARS-CoV-2),"% Inh (% inhibition of virus infection) (comparative experiments, Examples 1 and 2)"
CC(C)(O)c1ccn2c(-c3ccc(F)c(-c4ccc(F)cc4C#N)c3)cnc2c1F [TP-003],100.8%,–
Fc1ccc(Cl)cc1-c1nc(Nc2ccncc2)c2nccnc2n1 [SD-208],55.1%,–
CC(C)CNc1ccnc(NCc2csc(-c3ccccc3)n2)n1 [KHS-101],91.2%,–
O=C(Nc1ccc(S(=O)(=O)C(F)(F)F)cc1)C1=CCN(c2ncccc2C(F)(F)F)CC1 [A-784168],60.3%,–
N#CC(=C(N)Sc1ccc(N)cc1)c1ccccc1C(F)(F)F [MEK1-2-inhibitor],66.9%,–
COc1ccc(-c2csc(NC(=O)[C@H]3CCCCN3S(=O)(=O)c3ccc(C)cc3)n2)cc1 [ML-277],99.3%,–
NC(CO)(CO)CO.Nc1nccc(Oc2ccc(NC(=O)c3cn(COP(=O)(O)O)cc(-c4ccc(F)cc4)c3=O)cc2F)c1Cl [SCR-1481B1],89.3%,–
OCCCNc1cc(-c2ccnc(Nc3cccc(Cl)c3)n2)ccn1 [CGP-60474],54.4%,–
CC(=O)[C@@]12O[C@](C)(c3ccccc3)O[C@@H]1C[C@H]1[C@@H]3CCC4=CC(=O)CC[C@]4(C)[C@H]3CC[C@@]12C [algestone-acetophenide],96.0%,–
COC(=O)Nc1ccc(-c2nc(N3CCOCC3)c3cnn(C4CCN(Cc5cccnc5)CC4)c3n2)cc1 [WYE-687],105.8%,–
C=CC(=O)Nc1ccc2ncnc(Nc3cccc(Br)c3)c2c1 [PD168393],51.5%,–
COc1cc2c(cc1OC)CN(C(=O)[C@@H](NCc1ccncc1)C(C)(C)C)CC2 [TCS-OX2-29],52.7%,–
O=C(NCCCCCCNC(=O)ON=C1CCCCC1)ON=C1CCCCC1 [RHC-80267],63.9%,–
COc1cc(Br)c(S(=O)(=O)Nc2ccc(Cl)c(O[C@@H]3CCN(C)C3)c2)cc1OC [SB-657510],101.1%,–
Fc1ccc(CNc2ncnc3ccc(F)cc23)cc1 [spautin-1],92.1%,–
CC(C)NC(=O)c1ccc(C#Cc2ccncc2)cn1 [LSN-2463359],74.9%,–
CC1(C)CC(=O)c2c(C(F)(F)F)nn(-c3ccc(C(N)=O)c(N[C@H]4CC[C@H](OC(=O)CN)CC4)c3)c2C1 [PF-04929113 (SNX-5422)],91.3%,–
C[C@]12CC[C@H]3[C@@H](CC[C@]4(O)C[C@@H](O)CC[C@]34C=O)[C@@]1(O)CC[C@@H]2C1=CC(=O)OC1 [Strophantidin],67.1%,–
NCC(=O)Nc1ccc(-n2nc(C(F)(F)F)cc2-c2ccc3c(ccc4ccccc43)c2)cc1 [AR-12],85.7%,–
CN(C)C(=O)c1ccc(S(=O)(=O)c2ccc(NC(=O)[C@@](C)(O)C(F)(F)F)c(Cl)c2)cc1 [AZD7545],82.4%,–
CCCCN1[C@@H]2CC[C@H]1CC(OC(c1ccc(F)cc1)c1ccc(F)cc1)C2 (stereo partly drawn) [JHW-007],93.1%,–
MONENSIN SODIUM,–,103.2%
C[C@H](NC(=O)c1sccc1OCc1ccc(Cl)cc1)c1ccccc1 [AS-1949490],103.1%,–
Chlorophyllin (sodium copper salt),66.7%,–
CCCCN1C[C@H](O)[C@@H](O)[C@H](O)[C@H]1CO [Miglustat (n-Butyldeoxynojirimycin)],64.4%,–

Compound,% Inh. (% Inhibition of SARS-CoV-2),"% Inh (% inhibition of virus infection) (comparative experiments, Examples 1 and 2)"
COCc1c(-c2ccc(NC(=O)Nc3cc(C(F)(F)F)ccc3F)c(F)c2)c2c(N)ncnn2c1CN1CCOCC1 [ACTB-1003],97.7%,–
CNC[C@H](O)[C@@H](O)[C@H](O)[C@H](O)CO.CNC[C@H](O)[C@@H](O)[C@H](O)[C@H](O)CO.C[C@@H](O[C@H]1OCCN(Cc2nn(P(=O)(O)O)c(=O)[nH]2)[C@H]1c1ccc(F)cc1)c1cc(C(F)(F)F)cc(C(F)(F)F)c1 [Fosaprepitant dimeglumine salt],78.3%,–
CNC(=O)c1ccccc1Nc1nc(Nc2ccc(N3CCOCC3)cc2OC)ncc1Cl [NVP-TAE226],73.2%,–
SNS-314 methanesulfonate,81.4%,–
CC[C@@]1(O)C(=O)OCc2c1cc1n(c2=O)Cc2cc3c(N)cccc3nc2-1 [9-aminocamptothecin],80.3%,–
CC(C)[C@H]1c2ccc(F)cc2CC[C@@]1(CCN(C)CCCc1nc2ccccc2[nH]1)OC(=O)C1CC1 [NNC-55-0396],58.1%,–
CN1C/C=C/CCOc2cccc(c2)-c2ccnc(n2)Nc2cccc(c2)C1 [SB1317],56.5%,–
CC(C)(C)c1cc(C(=O)/C=C/c2ccc(C(=O)O)cc2)cc(C(C)(C)C)c1 [CH55],87.5%,–
GSK9027,64.1%,–
COCCN1CCN(Cc2ccc(-c3n[nH]c4c3C(=O)c3c(NC(=O)NN5CCOCC5)cccc3-4)cc2)CC1 [RGB-286638 (free base)],70.2%,–
O=C(Nc1ccccc1Br)N[C@@H]1CCN(c2ccc(C(F)(F)F)cn2)C1 [SB705498],64.6%,–
COc1cc(SC)ccc1C(=O)N1CCC(Cc2ccccc2)CC1 [JX-401],71.2%,–
COc1cc(N2CCC(N)CC2)ccc1Nc1ncc(Cl)c(-c2c[nH]c3ccccc23)n1 [AZD3463],96.5%,–
CCn1c(=O)n(C2=C(CO)CN(CC3CCCCCCC3)CC2)c2ccccc21 [trap-101],77.9%,–
Nc1nccc(Oc2ccc(NC(=O)c3c[nH]cc(-c4ccc(F)cc4)c3=O)cc2F)c1Cl [BMS 794833],98.3%,–
Cc1cc(-c2ccc(CC(=O)Nc3ccc(-c4cccnc4)cc3)cc2)ccn1 [Wnt-C59 (C59)],82.3%,–
hemin,62.9%,–
Nc1ccc2ncnc(NCCc3ccc(Oc4ccccc4)cc3)c2c1 [QNZ (EVP4593)],95.8%,–
NC(=O)N/N=C/c1ccc(Oc2ccc(F)cc2)cc1 [co-102862],55.2%,–
COc1ccc(-c2ccc3c(N4CCOC[C@@H]4C)nc(N4CCOC[C@@H]4C)nc3n2)cc1CO [AZD8055],105.2%,–
Cc1ccc(-c2csc(NC(=O)c3ccccc3)n2)c(C)c1 [INH1],89.8%,–
CN(C)CCNc1nc2cc(O)ccc2c2c1C(=O)c1ccccc1-2.Cl.Cl [TAS-103 (dihydrochloride)],92.6%,–
CCOc1cc(C(C)(C)C)ccc1C1=N[C@@](C)(c2ccc(Cl)cc2)[C@@](C)(c2ccc(Cl)cc2)N1C(=O)N1CCN(CCCS(C)(=O)=O)CC1 [RG7112 (RO5045337)],88.5%,–
N[C@H]1CCN(O)C1=O [HA-966-(S)-(−)],52.3%,–
CNc1cc2c(Nc3cccc(Br)c3)ncnc2cn1 [PD-158780],98.3%,–

Compound,% Inh. (% Inhibition of SARS-CoV-2),"% Inh (% inhibition of virus infection) (comparative experiments, Examples 1 and 2)"
CC(C)(C)n1nc(-c2cccc3ccccc23)c2c(N)ncnc21 [1-naphthyl-PP1],94.1%,–
O=C(NC1CCN(Cc2ccccc2)CC1)c1ccc(I)cc1 [4-IBP],89.9%,–
CC[C@H](CO)Nc1nc(NCc2ccc(-c3ccccn3)cc2)c2ncn(C(C)C)c2n1 [CR8-(R)],76.6%,–
COc1ccc(NC(=O)c2ccc(-c3ccc(-c4noc(C)n4)cc3C)cc2)cc1OCCN(C)C [SB-216641],57.6%,–
COc1cccc(-c2cc(F)ccc2[C@H]2Cc3nc(N)nc(C)c3C(=O)N2)n1 [NVP-HSP990],100.4%,–
O=C1NC(=O)c2cc(Nc3ccccc3)c(Nc3ccccc3)cc21 [CGP-52411],94.5%,–
c1ccc2sc(SN3CCOCC3)nc2c1 [N-oxydiethylenebenzothiazole-2-sulfenamide],64.6%,–
Cc1ccc2c(=O)c3ccccc3n(CCCN)c2c1C.O=C(O)/C=C\C(=O)O [ER-27319 maleate],101.0%,–
Cc1cc(-c2nc3cc(F)ccc3s2)ccc1NC(=O)[C@@H](N)CCCCN.Cl.Cl [phortress],67.1%,–
CCCCCCc1ccc(O)cc1O.Nc1c2ccccc2nc2ccccc12 [ACRISORCIN],61.7%,–
O=C(O)[C@]1(Cc2cccc(Nc3nccs3)n2)CC[C@@H](Oc2cccc(Cl)c2F)CC1 [MK-5108 (VX-689)],77.9%,–
Cc1cccc(CC(=O)N2CCc3c2ccc(-c2cn(C)c4ncnc(N)c24)c3F)n1 [GSK2656157],95.0%,–
O=C(NNc1nc2cc(F)ccc2n2cccc12)c1cnccn1 [SC144],108.7%,–
CC(CNS(=O)(=O)C(C)C)c1ccc(-c2ccc(C#N)cc2)cc1 (stereo not drawn) [LY-404187],80.4%,–
CNCc1ccc(C)c(NC(=O)c2ccc(Nc3nc(-c4ccccc4)c4ccccc4n3)cc2)c1 [BMS-833923 (XL139)],68.8%,–
COc1cc2nc(C3CC3)nc(N3CCN(c4ccccc4OC)CC3)c2cc1OC [ML314],87.7%,–
CCOc1cc(C(=O)Nc2ccc(Cl)c(-c3nc4ccccc4[nH]3)c2)cc(OCC)c1OCC [SANT-2],84.1%,–
NC(=O)Nc1sc(-c2ccc(F)cc2)cc1C(N)=O [TPCA-1],103.5%,–
CNc1ncc2cc(-c3cc(NC(=O)NCCC(C)(C)C)c(F)cc3C)c(C)nc2n1 [LY3009120],101.6%,–
O=C1/C(=C/c2ccccc2)C[C@@]2(O)[C@H]3Cc4ccc(O)c5c4[C@@]2(CCN3CC2CC2)[C@H]1O5 [BNTX],77.3%,–
Cl.c1ccc2c(-c3cnn4cc(-c5ccc(N6CCNCC6)cc5)cnc34)ccnc2c1 [LDN193189 (Hydrochloride)],74.3%,–
CC(C)(NS(=O)(=O)c1ccc(Oc2ccc(F)cc2)cc1)C(=O)NO [CP-471474],86.9%,–
CCc1ccccc1OC[C@@H](O)CN[C@H]1CCCc2ccccc21 [SR-59230A],57.3%,–
Cl.Cl.Fc1ccc(C(OCCN2CCN(C/C=C/c3ccccc3)CC2)c2ccc(F)cc2)cc1 [GBR-13069],66.7%,–
Exatecan Mesylate,70.1%,–
